Data set [1] has as its target T1, human wild type CB2R (Homo sapiens, UniProt P34972). Kind of data set: cAMP assay in CHO cells. In kind it is cell-based. Also on record: expressed in transfected cells; host or cells: CHO cells.
For data set [2], the target named is T1, human wild type CB2R. Kind of data set: β-arrestin2 recruitment assay (Pathhunter). In kind it is cell-based. Also on record: host or cells: CHO cells (Pathhunter). A general note: Activated receptors often draw arrestin, which recruitment assays turn into a signal.
The test system of data set [3] is UUO-induced kidney fibrosis. Kind of data set: Unilateral ureteral obstruction (UUO) model of kidney fibrosis. In kind it is in vivo, Sprague–Dawley rats. As for the experimental part:
In the ischemia/reperfusion (I/R) model of acute kidney injury (AKI),[47],[48] the compounds were administered orally by gavage to C57BL/6 mice 30 min before ischemia obtained by clamping both renal arteries and veins for 25 min, followed by 24 h of reperfusion. Mice were anesthetized using xylazine (10 mg kg^–1)/ketamine (100 mg kg^–1) injected intraperitoneally. Sham treated mice were treated identically except for the temporary closure of the renal vessels. After 24 h, under reanesthesia, plasma was taken for biomarker analysis. Thereafter, mice still in deep anesthesia were sacrificed by cervical dislocation. Creatinine, BUN (blood urea nitrogen), NGAL (neutrophil gelatinase-associated lipocalin), osteopontin, and KIM1 (kidney injury molecule-1) levels were determined using the following commercially available standard assays: creatinine: Roche Diagnostics 03263991, BUN: Roche Diagnostics 04460715, NGAL: BioPorto, Kit046 + Kit042, osteopontin: R&D Systems, MOST00, KIM-1: Abnova, KA1064. To assess fibrotic effects, we used the unilateral ureteral obstruction (UOO) model in Sprague–Dawley rats.[49] For the UOO model, rats were sacrificed after 5, 8, and 11 days and the percentage of PicroSirius Red positive areas (indicator of collagen III–I deposition) were measured in 4 μm histological cross sections of the kidney after 2% paraformaldehyde perfusion fixation and paraffin embedding. The extend of kidney fibrosis was quantified based on PicroSirius Red staining of 10 renal sections about 1 mm apart from each kidney. The collagen–III-I-positive pixel counts were determined in the cortical aspect of each kidney section from 10 optical fields using a 40× objective. As the total area analyzed was identical for all kidneys under investigation, the absolute number of pixels was used as the relevant readout. Vehicle treated animals received saline gavage only. The details of PicroSirius Red staining were previously described.[22]

A further data set in a line: Microsomal clearance. In kind it is in vitro ADME. To be noted: human, human microsomes; Table 1.
The next data set concerns the target TRPV1 (Homo sapiens, UniProt Q8NER1). Kind of data set: Endocannabinoid target profiling: TRPV1. Particulars: Table S1; read-out: TRPV1 (Ki, IC50).
For a further data set, the target named is FAAH (Homo sapiens, UniProt O00519). Kind of data set: Endocannabinoid target profiling: FAAH. The data set is classed as biochemical. Particulars: screening concentration 10 μM.
Another data set has as its target human CB2R (Homo sapiens, UniProt P34972). Kind of data set: Competition binding assay with [3H]-CP55940, HEK cell membranes.
Data set [4] has as its system endocannabinoid membrane transporter (EMT). Kind of data set: Endocannabinoid target profiling: cellular AEA uptake. The data set is classed as cell-based.
In the next data set the target is PPARg (Homo sapiens, UniProt P37231). Kind of data set: Endocannabinoid target profiling: PPARg. Particulars: Table S1; read-out: PPARg (Ki, IC50).
The nature of data set [5]: Rodent single-dose PK studies (summary rats and mice). The data set is classed as in vivo. As for the experimental part: To characterize the pharmacokinetic behavior of RNB-61, studies in rodents were conducted at the in vivo facility of F. Hoffmann-La Roche Ltd. (Basel, Switzerland). The plasma-concentration time profile was studied in rodents after single-dose RNB-61 administration by oral gavage (p.o. microsuspension excipients 7.5% gelatin/0.62% NaCl) and intravenous bolus injection (i.v. solution, excipients NMP:NaCl (30:70)). Three groups of male Wistar rats (n = 2 per group) were administered RNB-61 either at 1 mg kg^–1 i.v., 3 mg kg^–1 p.o., or 26 mg kg^–1 p.o. Plasma samples were drawn at 0.083, 0.25, 0.5, 1, 2, 4, 8, and 24 postdose in the i.v. group and at 0.25, 0.5, 0.75, 1.5, 3, 5, 8, and 24 h postdose in the p.o. groups. The samples were analyzed for RNB-61 concentration by LC/MS-MS. For the LC/MS-MS analysis, and the samples were prepared by adding 100 uL to 400 uL ACN with ISTD (100 ng/mL Bosantan in ACN/MeOH 1/1), stirring, and centrifuging (4000 rpm, 65’). 100 uL of the supernatant were pipetted and diluted with 400 μL H2O at pH 3. The analytes were separated on a Restek C18 column (5 μm, 1.0 × 3 mm). The mobile phase consisted of water containing 0.1% HCOOH as solvent A and ACN containing 0.1% HCOOH as solvent B. The gradient curve starting with 5% B was changed to 90% B between 0.4 and 0.6 min and further increased to 95% B between 0.6 and 1.2 min. This was maintained until 1.4 min and then reduced and kept at 5% B between 1.45 and 2.0 min. The mass spectrometer was operated in the positive mode. All LC-MS/MS was done using the Agilent RapidFire Analyzer software (version 4.3). The pharmacokinetic parameters were estimated by noncompartmental analysis in the Certara WinNonlin software (version 5.3). A similar study design was run in mice with three groups receiving 2 mg kg^–1 i.v., 4 mg kg^–1 p.o., or 26 mg kg^–1 p.o., and plasma sampling occurring in a composite profile (n = 2 for each time point) up to 7 or 24 h postdose. Male C57/BL6 mice (n = 5 per group) were used to study the influence of P-gp efflux on brain penetration. […]

Molecules are shown by their SMILES.

human CB2R, sequence (P34972 whole entry): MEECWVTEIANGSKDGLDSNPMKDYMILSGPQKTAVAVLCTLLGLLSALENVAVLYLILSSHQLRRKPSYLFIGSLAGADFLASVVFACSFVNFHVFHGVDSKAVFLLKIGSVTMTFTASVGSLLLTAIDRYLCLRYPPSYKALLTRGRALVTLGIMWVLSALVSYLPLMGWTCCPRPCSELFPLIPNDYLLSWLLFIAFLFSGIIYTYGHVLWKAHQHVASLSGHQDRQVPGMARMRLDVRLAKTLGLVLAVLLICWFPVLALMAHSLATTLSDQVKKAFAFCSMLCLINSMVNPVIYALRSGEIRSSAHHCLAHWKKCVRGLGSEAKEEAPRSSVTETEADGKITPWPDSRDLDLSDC
T1 sequence (P34972 whole entry): as above
TRPV1, sequence (Q8NER1 whole entry, species assumed): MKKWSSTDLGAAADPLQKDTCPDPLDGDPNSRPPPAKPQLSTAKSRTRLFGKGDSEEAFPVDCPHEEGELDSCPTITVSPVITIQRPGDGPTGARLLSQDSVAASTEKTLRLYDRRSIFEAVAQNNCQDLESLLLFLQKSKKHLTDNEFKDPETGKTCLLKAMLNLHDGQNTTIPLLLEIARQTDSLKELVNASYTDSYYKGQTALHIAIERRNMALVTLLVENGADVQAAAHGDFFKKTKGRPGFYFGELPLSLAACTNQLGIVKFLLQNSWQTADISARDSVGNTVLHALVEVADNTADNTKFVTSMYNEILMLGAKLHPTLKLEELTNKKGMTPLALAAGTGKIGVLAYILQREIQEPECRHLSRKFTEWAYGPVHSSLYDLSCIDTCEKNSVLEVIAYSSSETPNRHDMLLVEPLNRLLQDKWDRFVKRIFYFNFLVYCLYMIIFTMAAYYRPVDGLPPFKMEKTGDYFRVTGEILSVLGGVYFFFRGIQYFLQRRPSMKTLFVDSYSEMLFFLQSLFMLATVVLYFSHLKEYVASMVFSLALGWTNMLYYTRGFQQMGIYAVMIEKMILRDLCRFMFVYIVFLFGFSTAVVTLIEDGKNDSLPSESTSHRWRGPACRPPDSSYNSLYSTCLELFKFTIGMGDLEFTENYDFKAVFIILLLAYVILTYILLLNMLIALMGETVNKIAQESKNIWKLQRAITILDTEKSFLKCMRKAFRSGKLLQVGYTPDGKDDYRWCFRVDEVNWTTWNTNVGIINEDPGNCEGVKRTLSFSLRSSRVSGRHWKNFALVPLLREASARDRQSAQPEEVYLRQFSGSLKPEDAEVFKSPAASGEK
PPARg, sequence (P37231 whole entry, species assumed): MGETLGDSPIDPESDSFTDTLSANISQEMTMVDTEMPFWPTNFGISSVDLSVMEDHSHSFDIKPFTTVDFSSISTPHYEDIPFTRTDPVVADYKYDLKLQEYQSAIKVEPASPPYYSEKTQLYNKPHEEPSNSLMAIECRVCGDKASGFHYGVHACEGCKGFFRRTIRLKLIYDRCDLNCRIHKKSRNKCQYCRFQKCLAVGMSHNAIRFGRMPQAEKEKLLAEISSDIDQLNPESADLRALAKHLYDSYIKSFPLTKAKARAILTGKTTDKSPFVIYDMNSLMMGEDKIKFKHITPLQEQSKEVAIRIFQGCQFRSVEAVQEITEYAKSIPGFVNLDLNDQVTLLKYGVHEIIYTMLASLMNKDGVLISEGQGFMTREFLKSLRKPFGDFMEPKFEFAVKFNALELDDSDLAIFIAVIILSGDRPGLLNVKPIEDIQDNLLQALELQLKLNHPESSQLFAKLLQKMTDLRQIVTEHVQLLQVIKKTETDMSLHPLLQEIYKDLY
FAAH, sequence (O00519 whole entry): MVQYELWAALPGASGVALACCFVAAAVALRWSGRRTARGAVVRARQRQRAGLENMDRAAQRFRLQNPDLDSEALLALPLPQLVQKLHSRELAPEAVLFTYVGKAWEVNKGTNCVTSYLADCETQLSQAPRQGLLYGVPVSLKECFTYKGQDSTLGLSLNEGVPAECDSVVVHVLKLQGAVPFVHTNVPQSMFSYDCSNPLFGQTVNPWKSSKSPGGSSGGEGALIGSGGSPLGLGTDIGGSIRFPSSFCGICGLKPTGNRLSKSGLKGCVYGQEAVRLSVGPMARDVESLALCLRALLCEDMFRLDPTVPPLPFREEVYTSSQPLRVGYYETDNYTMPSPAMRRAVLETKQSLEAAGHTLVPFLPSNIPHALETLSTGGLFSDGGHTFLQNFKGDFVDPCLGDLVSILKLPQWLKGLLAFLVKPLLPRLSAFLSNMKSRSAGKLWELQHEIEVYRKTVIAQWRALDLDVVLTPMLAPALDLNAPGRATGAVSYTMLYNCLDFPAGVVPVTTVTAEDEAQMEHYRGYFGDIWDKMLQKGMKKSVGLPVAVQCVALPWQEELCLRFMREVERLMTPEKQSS
Description for human CB2R: Competition and saturation binding assays were performed using the radiolabeled CB1R/CB2R agonist [^3H]-CP55940 (PerkinElmer).
Binding reactions were terminated by vacuum filtration onto 0.5% polyethylenimine presoaked GF/B filter plates (Packard) using a Filtermate cell harvester followed by 6 brief washes with 0.3 mL/well of ice-cold wash buffer. Wash buffer comprising 50 mmol L^–1 Tris- HCl, 5 mmol L^–1 MgCl2, 2.5 mmol L^–1 EDTA, and 0.5% fatty acid-free BSA, pH 7.4. Plates were dried at 50 °C for 1 h and liquid scintillation counting was used to determine levels of bound radiolabel. IC50 values and Hill slopes were determined with a 4-parameter logistic model using ActivityBase (ID Business Solution, Guilford, UK) and pKi values were determined using the Cheng–Prusoff equation as shown below: [drawing 1] where S indicates the concentration of the substrate and Km depicts the affinity constant of the substrate.

Take `Cn1c(C(C)(C)C)cc(=NC(=O)c2cc(C(F)(F)F)ccc2OCC(C)(C)O)n1CC1CCC1` [RNB-61]: the maximum response (Emax) – broadly, the size of the effect at its maximum, as opposed to the concentration needed – at human wild type CB2R [1] (CHO, percentage normalized to 1 μM CP55940, read-out: Emax cAMP inhibition) was 100%; at human wild type CB2R [2] (percentage normalized to 1 μM CP55940, read-out: Emax β-arrestin2 recruitment), 80%; on human wild type CB2R [2] (relative to CP55,940, text, read-out: Emax of total β-arrestin2 recruitment), ~80%. Moreover, the concentration giving a half-maximal response (EC50) (usually the concentration needed to bring the measured effect to its halfway point) was 0.31 ± 0.07 nM on human wild type CB2R [1] (Table 1, mean ± SD, read-out: EC50 hCB2R (cAMP assay)) and 13.3 ± 1.9 nM at human wild type CB2R [2] (Figure 2, normalized to 1 μM CP55940). Besides, the “Emax cAMP inhibition” value on human wild type CB2R [1] (percentage normalized to 1 μM CP55940, listed as RBN-61) is given as “same efficacy (Emax) as CP55,940”. In addition, the “inhibition of accumulation of collagen–III-I” value in data set [3] (3 mg kg^–1, day 8) amounted to 61%. Besides, in [3] (all three doses (printed 0.3, 3, and 3 mg kg^–1), day 8), the “collagen–III-I positive area vs vehicle” value is given as “significant reduction”. Besides, in the data set “Microsomal clearance”, the intrinsic clearance (microsomal CLint) (commonly the rate of metabolic loss divided by the concentration) was ≤ 10 µL/min/mg. In addition, the half-inhibitory concentration (IC50) (commonly the concentration that gives 50% inhibition) on TRPV1 is > 50000 nM; in [4] (Table S1, read-out: EMT (Ki, IC50)), > 10000 nM; at PPARg, > 10000 nM. The “inhibition of EC hydrolysis by FAAH” value on FAAH was “did not inhibit”. In addition, the affinity on human CB2R, expressed as Ki, was 0.57 ± 0.03 nM. The hCB2R selectivity on human CB2R (Ki hCB1R over Ki hCB2R) is reported as 6810. In addition, the “selectivity over hCB1R” value at human CB2R (hCB2R over hCB1R) is on record as 6,800 fold. In addition, in data set [4] (screening concentration 10 μM), the “inhibition of cellular AEA uptake (EMT)” value is reported as “did not inhibit”. Further, the Vd in [5] (Wistar (rats), mouse strain not stated for this study, rat, mouse, plasma, intravenous, range rats and mice, read-out: volume of distribution at steady state (Vss)) was in the range of 1.6 to 2.4 L/kg. For the same molecule, the half-life – broadly, how long it takes for the measured level to halve – in data set [5] (Wistar (rats), mouse strain not stated for this study, rat, mouse, plasma, in rats and mice, read-out: terminal plasma half-life) was in the range of 4 to 8 h. Besides, the “plasma clearance as share of hepatic blood flow” value in data set [5] (rodent single-dose PK) was ~5 % of hepatic blood flow.
